Patent US20030186269A1, “Ssa-56 kda polypeptide and its fragments and polynucleotides encoding said polypeptides and therapeutic uses” (priority 2000, published 2003)

Columns and labels:
PBMCs = test: Toxicity (number of live cells) in the same PBMC cultures; type: cell-based, human; details: live cells unchanged at start, appear to increase at end of culturing
Text: (§1) Specifically, MB inhibits by 70 to 100% the level of HIV viral protein p24 in the culture supernatants. This effect correlates with the level of expression of viral messenger RNAs (nonspliced and single-spliced).

chemokines = test: Profile of secreted cytokines and chemokines in PBMC cultures; type: cell-based, human; details: PBMC cultures of HIV patients
Text: as §1

[1] = system: mRNA encoding the Ro/SSA-like protein; test: Semiquantitative RT-PCR of the expression of the mRNA encoding Ro/SSA-like in PBMCs; type: cell-based, human
Description: PBMCs from patients (P) infected with HIV or from control healthy donors (C) are isolated, depleted of CD8+ (Dynabeads, Dynal) and stimulated with PHA (5 μg/ml) for 3 days. The cells are then treated or not treated with murabutide (10 μ/ml) in the presence of interleukin 2 (IL2) (10U/ml) in RPMI medium supplemented with 10% fetal calf serum (FCS) for 6 hours or 24 hours in a proportion of a minimum of 5×10^6 cells per condition.
After treatment, the RNA in the cells is extracted (RNAplus, Quantum-bioprobe), then treated with DNase (Boerhinger) and reverse transcribed (RT) using an oligo(dT) in the presence of the Mu-MLV reverse transcriptase (Superscript II, Gibco).
The quality of the RTs is verified by PCR (25 cycles) with primers specific for GAPDH (5′GCCATCAATGACCCCTTCATTGAC 3′) (SEQ ID No. 18) and (5′TGACGAACATGGGGGCATCAGCAG 3′) (SEQ ID No. 19) using 20, 100 and 500 ng of total RNA. The inventors then carried out RT-PCRs (35 cycles) with primers specific for the mRNA encoding Ro/SSA-like, (5′ GAAAGAGAGGTCGCAGAGGCCTGT 3′) (SEQ ID No. 20) and (5′ TGATAAGGCTGAGGAAGGGAAATG 3′) (SEQ ID No. 21). The number of amplification cycles was determined beforehand (35 cycles). The amplified fragments are visualized on agarose gel (1%) in the presence of ethidium bromide, and then quantified using the Imager master program (Pharmacia).
For each dilution, the given value for the gene studied is related to that of the GAPDH (ratio=R). For each patient and each time (6 h or 24 h), the R of the cells treated with murabutide is related to that of the untreated cells. The results are then expressed as % increase or inhibition of expression of the gene relative to the untreated cells. It should be noted that, for each dilution tested, the R can vary slightly; the mean for the Rs was produced by taking care to always be in the linear phase of amplification.

[2] = cited from earlier work
[3] = healthy volunteers and patients suffering from cancer; cited from earlier work
[4] = HIV+ patients, phase I and phase IIa; cited from earlier work
[5] = system: human immunodeficiency virus (HIV); details: macrophages and dendritic cells, PBMCs of infected patients; cited from earlier work
HIV Nef (HIV) = test: ELISA on coated recombinant protein, control at 1/100
HIV Tat (HIV) = test: as above
Helicase = test: as above
[6] = target: recombinant Ro/SSA-like (SSA-56) protein, complete 485 aa open reading frame, His-tagged, expressed in E. coli (human) (UniProt Q6AZZ1); test: as above
[7] = target: recombinant SSA-52 protein (human) (UniProt P19474); test: as above
[8] = target: recombinant SSA-60 protein (UniProt P10155); test: as above
[9] = target: recombinant SSB-48 protein (UniProt P05455); test: as above
Chain of UniProt P05455 (P05455 whole entry): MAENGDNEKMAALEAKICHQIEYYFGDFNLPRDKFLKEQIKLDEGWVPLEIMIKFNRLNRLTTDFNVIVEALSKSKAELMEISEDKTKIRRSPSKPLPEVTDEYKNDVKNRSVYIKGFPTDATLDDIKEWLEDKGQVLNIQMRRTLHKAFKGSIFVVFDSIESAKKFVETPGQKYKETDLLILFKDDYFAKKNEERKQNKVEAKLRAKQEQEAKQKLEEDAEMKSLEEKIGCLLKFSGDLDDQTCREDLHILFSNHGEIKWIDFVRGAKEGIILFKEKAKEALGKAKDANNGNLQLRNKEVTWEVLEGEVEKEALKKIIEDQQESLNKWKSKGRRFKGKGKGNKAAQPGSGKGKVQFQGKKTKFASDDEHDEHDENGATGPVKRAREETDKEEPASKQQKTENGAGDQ

Chain of UniProt P10155 (P10155 whole entry): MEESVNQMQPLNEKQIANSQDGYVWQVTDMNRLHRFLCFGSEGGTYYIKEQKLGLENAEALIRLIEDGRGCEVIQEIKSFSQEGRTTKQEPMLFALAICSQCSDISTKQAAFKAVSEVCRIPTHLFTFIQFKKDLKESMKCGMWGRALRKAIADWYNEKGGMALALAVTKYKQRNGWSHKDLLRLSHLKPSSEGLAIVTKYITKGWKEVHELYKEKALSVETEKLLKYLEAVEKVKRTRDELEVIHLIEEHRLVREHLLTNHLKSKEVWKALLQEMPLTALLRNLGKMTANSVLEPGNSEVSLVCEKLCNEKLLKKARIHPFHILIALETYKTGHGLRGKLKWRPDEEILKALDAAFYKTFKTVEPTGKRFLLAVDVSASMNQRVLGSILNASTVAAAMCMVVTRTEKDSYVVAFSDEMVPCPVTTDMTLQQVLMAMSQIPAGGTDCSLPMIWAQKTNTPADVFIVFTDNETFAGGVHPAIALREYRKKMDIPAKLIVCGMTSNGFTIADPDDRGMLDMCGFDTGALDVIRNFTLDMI
Chain of UniProt P19474 (P19474 whole entry): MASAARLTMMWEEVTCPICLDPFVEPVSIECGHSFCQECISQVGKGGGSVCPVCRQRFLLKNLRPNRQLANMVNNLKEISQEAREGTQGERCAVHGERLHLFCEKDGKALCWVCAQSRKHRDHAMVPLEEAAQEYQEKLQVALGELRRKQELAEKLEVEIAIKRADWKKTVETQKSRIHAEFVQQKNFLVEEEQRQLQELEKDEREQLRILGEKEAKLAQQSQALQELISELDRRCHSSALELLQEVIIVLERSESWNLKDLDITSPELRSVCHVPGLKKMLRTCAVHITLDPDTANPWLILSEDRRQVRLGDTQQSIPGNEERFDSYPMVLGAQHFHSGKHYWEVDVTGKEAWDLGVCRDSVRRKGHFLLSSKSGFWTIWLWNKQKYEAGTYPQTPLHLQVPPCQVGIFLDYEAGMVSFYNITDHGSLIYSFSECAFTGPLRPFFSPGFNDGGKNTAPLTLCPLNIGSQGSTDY

Molecule | toxicity, number of live cells (PBMCs) | induction of chemokines known to be inhibitors of HIV replication (chemokines) | inhibition of expression of the mRNA encoding Ro/SSA-like ([1]; PBMCs from HIV+ patients after stimulation with murabutide) | inhibition of expression of the mRNA encoding Ro/SSA-like relative to untreated cells ([1]; PBMCs from HIV+ patients, murabutide 10 μ/ml, 6 h or 24 h, 7 patients/10) | inhibition of expression of the mRNA encoding Ro/SSA-like ([1]; PBMCs from healthy controls, observed only in 3 cases out of 8) | inflammatory reactions ([2]; in vivo) | pyrogenicity ([2]; unlike MDP and many other analogs) | severe toxicity in clinical studies [3] | clinical tolerance [4] | HIV replication [5] | Absorbance value at 1/100 (HIV Nef (HIV)) [absorbance] | Absorbance value at 1/100 (HIV Tat (HIV)) [absorbance] | Absorbance value at 1/100 (Helicase) [absorbance] | Absorbance value at 1/100 [6] [absorbance] | Absorbance value at 1/100 [7] [absorbance] | Absorbance value at 1/100 [8] [absorbance] | Absorbance value at 1/100 [9] [absorbance]
CCCCOC(=O)[C@@H](CCC(N)=O)NC(=O)[C@H](C)NC(=O)[C@@H](C)O[C@H]1[C@H](O)[C@@H](CO)OC(O)[C@@H]1NC(C)=O (some centres unmarked) [Murabutide] | lack of toxicity | induces reproduction of chemokines | significant inhibition | more than 40% | inhibition is weaker | does not induce inflammatory reactions | not pyrogenic | has not shown any severe toxicity | good clinical tolerance | inhibits human immunodeficiency virus (HIV) replication |  |  |  |  |  |  | 
Control SP20 |  |  |  |  |  |  |  |  |  |  | 0.056 | 0.068 | 0.055 | 0.058 | 0.059 | 0.068 | 0.051
